Reference: patent publication US20250009819A1, “NOVEL PROBIOTICS AND USE THEREOF” (PBLBIOLAB CO., LTD., priority 2021, published 2025)

Tests used:
[1] = Antioxidant activity (DPPH, in vitro); format: biochemical; details: DPPH 0.2 mM; lactic acid bacteria suspension 1×10^8 CFU/ml; 37° C. 20 min
Description: DPPH (2,2-Diphenyl-1-picrylhydrazyl) was dissolved in ethanol to a concentration of 0.2 mM to prepare DPPH solution. Lactic acid bacteria suspension (1×10^8 CFU/ml) or vitamin C solution (1 g/ml) was added to 0.1 ml of the above DPPH solution and incubated at 37° C. for 20 min. The culture was centrifuged at 3000 rpm for 5 min to obtain a supernatant. The absorbance of the supernatant was then measured at 517 nm and the antioxidant activity of the lactic acid bacteria was calculated.

[2] = tested on: gut microbiota; test: LPS production in gut microbiota (ELISA); format: cell-based; details: human feces culture; lactic acid bacteria 1×10^6 CFU/mL; anaerobic 24 hr
Description: Fresh human feces were suspended in anaerobic medium (GAM, Nissui Pharmaceutical Co., Ltd., Japan) and allowed to stand for 10 min. The supernatant was diluted with 10,000-fold anaerobic medium, 0.05 mL of the dilution was transplanted into 5 mL of freshly made anaerobic medium, and lactic acid bacteria (1×10^6 CFU/mL) were implanted and incubated anaerobically for 24 hr.

[3] = tested on: IL-10; test: IL-10 expression in LPS-treated macrophages (ELISA); format: cell-based, C57BL/6 mice; details: macrophages treated with lactic acid bacteria and LPS for 24 hours
Description: (§1) C57BL/6 mice (male, 6 weeks old, 20-23 g) were subjected to an intraperitoneal injection of 2 ml of sterile 4% thioglycolate solution, and after 96 hours, the mice were anesthetized and injected with 8 ml of RPMI 1640 medium through the peritoneal cavity. Then, after 5-10 minutes, the RPMI medium (macrophages) in the mouse peritoneal cavity was extracted, centrifuged at 1000 g for 10 minutes, and washed again with RPMI 1640 medium twice. Macrophages were seeded in 24-well plates at a count of 0.5×10^6 in each well, and treated with lactic acid bacteria and LPS, an inflammatory response-inducing substance, for 24 hours. TNF-α and IL-10 cytokine expression amount in the culture supernatant was then measured by ELISA Kit.

[4] = tested on: BDNF; test: BDNF expression in SH-SY5Y cells; format: cell-based; details: LPS 200 ng/ml; lactic acid bacteria 1×10^4 CFU/ml; 24 h
Description: (§2) SH-SY5Y cells obtained from the Korean Cell Line Bank were cultured in DMEM medium supplemented with 10% FBS and 1% antibiotics, and dispensed at 2×10^6 cells per well in a 12-well plate. Then, LPS (200 ng/ml) was added to each well along with lactic acid bacteria (1×10^4 CFU/ml) and incubated for 24 h. The cells and supernatants were collected, sonicated and centrifuged, and the amount of BDNF in the supernatant was measured by ELISA kit.

[5] = tested on: Clostridium difficile; test: Clostridium difficile proliferation in gut microbiota (PCR); format: cell-based; details: human feces culture; lactic acid bacteria 1×10^6 CFU/mL; anaerobic 24 hr
Description: Fresh human feces were suspended in anaerobic medium (GAM, Nissui Pharmaceutical Co., Ltd., Japan) and allowed to stand for 10 min. The supernatant was diluted with 10,000-fold anaerobic medium, 0.05 mL of the dilution was transplanted into 5 mL of freshly made anaerobic medium, and lactic acid bacteria (1×10^6 CFU/mL) were implanted and incubated anaerobically for 24 hr. This culture medium was divided into two, one was centrifuged (5000 rpm, 20 minutes), the precipitated DNA was isolated using the QIAamp DNA stool mini kit (Qiagen, Germany), and Clostridium difficile (primer: forward, 5′-[…]-3′ (SEQ ID NO: 4); reverse, 5′-[…]-3′ (SEQ ID NO: 5) was quantified by PCR. The reaction product was first treated at 95° C. for 30 seconds, followed by 42 cycles of 5 seconds at 95° C. and 30 seconds at 72° C. for analysis. In addition, one culture medium was sonicated, centrifuged, and filter-sterilized, and the amount of LPS in the supernatant was measured using an ELISA kit.

[6] = tested on: Neuropeptide Y (NPY); test: Neuropeptide Y (NPY) expression in PC12 phaeochromocytoma cells; format: cell-based; details: LPS 200 ng/ml; lactic acid bacteria 1×10^4 CFU/ml; 24 hr
Description: as §2, with “PC12” for “SH-SY5Y”, “1×10^6” for “2×10^6”, “hr.” for “h.”, “NPY” for “BDNF”

[7] = tested on: TNF-α; test: TNF-α expression in LPS-treated macrophages (ELISA); format: cell-based, C57BL/6 mice; details: macrophages treated with lactic acid bacteria and LPS for 24 hours
Description: as §1

| Substance | Antioxidant activity [1] | Gut microbiota Inhibition of LPS production [2] | Macrophage Induction of IL-10 expression [3] | SHSY5Y cell Induction of BDNF expression [4] | Gut microbiota Inhibition of difficile bacteria proliferation [5] | PC12 cell Induction of NPY expression [6] | Macrophage Inhibition of TNF-α expression [7] |
| --- | --- | --- | --- | --- | --- | --- | --- |
| Bifidobacterium adolescentis NK221 | + (weakly (+; >20-60%)) | + (weakly (+; >20-60%)) | − (not or less than 20% (−; <20%)) | − (not or less than 20% (−; <20%)) | + (weakly (+; >20-60%)) | + (weakly (+; >20-60%)) | − (not or less than 20% (−; <20%)) |
| Bifidobacterium catenulatum NK225 | + (weakly (+; >20-60%)) | − (not or less than 20% (−; <20%)) | + (weakly (+; >20-60%)) | − (not or less than 20% (−; <20%)) | + (weakly (+; >20-60%)) | − (not or less than 20% (−; <20%)) | + (weakly (+; >20-60%)) |
| Bifidobacterium adolescentis NK220 | + (weakly (+; >20-60%)) | − (not or less than 20% (−; <20%)) | + (weakly (+; >20-60%)) | + (weakly (+; >20-60%)) | + (weakly (+; >20-60%)) | − (not or less than 20% (−; <20%)) | + (weakly (+; >20-60%)) |
| Lactobacillus johnsonii NK202 | + (weakly (+; >20-60%)) | + (weakly (+; >20-60%)) | + (weakly (+; >20-60%)) | + (weakly (+; >20-60%)) | + (weakly (+; >20-60%)) | + (weakly (+; >20-60%)) | + (weakly (+; >20-60%)) |
| Bifidobacterium catenulatum NK227 | + (weakly (+; >20-60%)) | + (weakly (+; >20-60%)) | + (weakly (+; >20-60%)) | − (not or less than 20% (−; <20%)) | + (weakly (+; >20-60%)) | + (weakly (+; >20-60%)) | + (weakly (+; >20-60%)) |
| Lactobacillus reuteri NK201 | + (weakly (+; >20-60%)) | + (weakly (+; >20-60%)) | + (weakly (+; >20-60%)) | + (weakly (+; >20-60%)) | + (weakly (+; >20-60%)) | + (weakly (+; >20-60%)) | + (weakly (+; >20-60%)) |
| Bifidobacterium pseudocatenulatum NK230 | + (weakly (+; >20-60%)) | + (weakly (+; >20-60%)) | − (not or less than 20% (−; <20%)) | + (weakly (+; >20-60%)) | + (weakly (+; >20-60%)) | + (weakly (+; >20-60%)) | − (not or less than 20% (−; <20%)) |
| Bifidobacterium adolescentis NK222 | + (weakly (+; >20-60%)) | + (weakly (+; >20-60%)) | + (weakly (+; >20-60%)) | − (not or less than 20% (−; <20%)) | + (weakly (+; >20-60%)) | + (weakly (+; >20-60%)) | + (weakly (+; >20-60%)) |
| Lactobacillus rhamnosus NK212 | ++ (strongly (++; >60-90%)) | + (weakly (+; >20-60%)) | − (not or less than 20% (−; <20%)) | − (not or less than 20% (−; <20%)) | − (not or less than 20% (−; <20%)) | − (not or less than 20% (−; <20%)) | − (not or less than 20% (−; <20%)) |
| Lactobacillus casei NK196 | ++ (strongly (++; >60-90%)) | + (weakly (+; >20-60%)) | − (not or less than 20% (−; <20%)) | − (not or less than 20% (−; <20%)) | + (weakly (+; >20-60%)) | + (weakly (+; >20-60%)) | − (not or less than 20% (−; <20%)) |
| Bifidobacterium bifidum NK224 | + (weakly (+; >20-60%)) | + (weakly (+; >20-60%)) | − (not or less than 20% (−; <20%)) | − (not or less than 20% (−; <20%)) | + (weakly (+; >20-60%)) | + (weakly (+; >20-60%)) | − (not or less than 20% (−; <20%)) |
| Lactobacillus plantarum NK181 | + (weakly (+; >20-60%)) | − (not or less than 20% (−; <20%)) | − (not or less than 20% (−; <20%)) | − (not or less than 20% (−; <20%)) | + (weakly (+; >20-60%)) | + (weakly (+; >20-60%)) | + (weakly (+; >20-60%)) |
| Lactobacillus paracasei NK189 | + (weakly (+; >20-60%)) | + (weakly (+; >20-60%)) | − (not or less than 20% (−; <20%)) | − (not or less than 20% (−; <20%)) | + (weakly (+; >20-60%)) | − (not or less than 20% (−; <20%)) | + (weakly (+; >20-60%)) |
| Bifidobacterium infantis NK214 | ++ (strongly (++; >60-90%)) | + (weakly (+; >20-60%)) | − (not or less than 20% (−; <20%)) | − (not or less than 20% (−; <20%)) | + (weakly (+; >20-60%)) | + (weakly (+; >20-60%)) | − (not or less than 20% (−; <20%)) |
| Lactobacillus sakei NK197 | ++ (strongly (++; >60-90%)) | + (weakly (+; >20-60%)) | + (weakly (+; >20-60%)) | − (not or less than 20% (−; <20%)) | + (weakly (+; >20-60%)) | + (weakly (+; >20-60%)) | + (weakly (+; >20-60%)) |
